# Measurements reported in US10757943B2, “Thidiazuron mixtures and uses thereof” (Valent BioSciences LLC, priority 2017, dated 2020).
# Key:
# Format in all cases: in vivo
# [1] = system: Concord grape vines; experiment: Bud break and shoot growth of potted dormant Concord grape vines in the greenhouse (Example 1); details: for % bud break (vines with at least one bud break): hydrogen cyanamide 10,000 ppm, 17-0-0 197,100 ppm, 15-0-0 239,060 ppm, ACC 1,000 ppm; for Initial to 50% Bud Break: synchrony of bud break; for 50% Bud Break (DAT): time to 50% bud break
# Text: An aqueous 50% hydrogen cyanamide solution (Sigma-Aldrich, St. Louis, Mo. USA) was used as the source of hydrogen cyanamide. The commercial product, Dormex® contains 50% hydrogen cyanamide (w/v) in water.
# Erger® was used as the source of 15-0-0 fertilizer. (Erger is a registered trademark of Valagro S.P.A., Italy and is available from Helena Chemical Company, Collierville, Tenn., USA). Erger® contains 15% total nitrogen as 3.1% ammoniacal nitrogen, 5.8% nitrate nitrogen and 6.1% urea nitrogen and 3.3% calcium derived from ammonium nitrate, calcium nitrate and urea. As used herein, the term “15-0-0 fertilizer” refers to the Erger® formulation above and all formulations described in International PCT application publication WO/2001/037653A2 by Valagro S.P.A., Italy, which is incorporated, herein, in its entirety.
# CAN-17 was used as the source of 17-0-0 fertilizer. CAN-17 contains 17% total nitrogen as 4.6% ammonium nitrogen and […] nitrate nitrogen and 1.3% urea nitrogen and 8.8% calcium derived from ammonium nitrate and calcium nitrate. CAN-17 is available from J.R. Simplot Company (Boise, Id., USA).
# To assess the ability of mixtures of the invention to promote and synchronize bud break these mixtures were applied to Concord grape vines and examined for bud break (initiation of growth) and subsequent shoot development. Specifically, 1 year old dormant bare rooted Concord grape vines were planted in pots containing Pro-Mix® BX potting soil (Pro-Mix is a registered trademark of and available from Premier Horticulture Ltd.) and pruned to 5 nodes on a single shoot. Aqueous solutions of thidiazuron, hydrogen cyanamide, 15-0-0 fertilizer, 17-0-0 fertilizer and 1-aminocyclopropane-1-carboxylic acid (“ACC”), and mixtures thereof were each applied individually or sequentially or co-applied to the first-year wood of separate Concord grape vines. Plants were grown in the greenhouse for 49 days and evaluated for percent of vines showing bud break, or relief from dormancy, periodically between 7 days and the conclusion of the experiment. […] At 49 days after treatment (DAT), the plants were sacrificed and measured for total number of flower clusters, total new shoot length, longest new shoot, combined new shoot fresh weight and combined new shoot dry weight. New shoot growth is the growth arising from the dormant buds not including the woody growth that was planted and gave rise to the new growth.
# Synergy is calculated by the Abbott method: %Cexp=A+B−(AB/100), where % Cexp is the expected efficacy and in which A and B are the speed of bud break or shoot length or shoot weight given by the single active ingredients. If the ratio between the experimentally observed efficacy of the mixture Cobs and the expected efficacy of the mixture is greater than 1, synergistic interactions are present in the mixture” (Gisi, Synergistic Interaction of Fungicides in Mixtures, The American Phytopathological Society, 86:11, 1273-1279,1996).
# [2] = system: Red Flame seedless grape vines; experiment: Bud break and shoot length of field-grown Red Flame seedless grape vines (Example 2); details: hydrogen cyanamide 10,000 ppm, thidiazuron 300 ppm, 17-0-0 197,100 ppm
# Procedure: To assess the ability of mixtures of the invention to promote and synchronize bud break these mixtures were applied to field-grown Red Flame seedless grape vines and examined for bud break (initiation of growth) and subsequent shoot development. Thidiazuron, hydrogen cyanamide, 17-0-0 fertilizer, and mixtures thereof were each applied individually or sequentially (co-applied) to the separate spurs of Red Flame seedless grape vines. Plants were evaluated for bud break at 31 days after treatment, for percent bud break and total new shoot length at 48 days after treatment. Results of these evaluations can be seen below in Tables 4 and 5.
# [3] = system: Concord grape vines; experiment: Bud break and harvest weight of endo-dormant two-year-old Concord grape vines in the greenhouse (Example 4); details: thidiazuron ppm and 17-0-0 % as in label, 15-0-0 65,880 ppm
# Text: Two-year-old Concord grape vines were purchased commercially. These vines had just lost their leaves and were shipped shortly after they were dug at the nursery. Thus, the vines had not fulfilled their chilling requirement and were considered endo-dormant. The vines were potted individually into one-gallon pots containing ProMix® BX immediately upon receipt and subsequently pruned back to the five proximal buds on the one-year old wood. Within two hours of pruning, treatment solutions were applied using a foam paint brush to the remaining one-year old wood, including the cut end from pruning. Two treatments, water and hydrogen cyanimide, which acted as negative and positive controls, respectively, were included in all studies.
# Treatment solutions were made fresh in water and contained 1% (v/v) non-ionic surfactant. In all cases, two treatment solutions were applied to the plants. Where a single component was used for a treatment, the first application solution was water containing surfactant; in the cases where combination treatments were made to the same plant, the first treatment solution was allowed to dry prior to applying the second.
# The treated plants were kept in a conventional greenhouse under supplemental lighting. Greenhouse conditions were 65:60° F. Day:Night temperature with a 16:8 hour photoperiod. Relief from dormancy was assessed every two days during the course of the study. Dormancy was considered relieved upon the emergence of a green bud. Both the number of ‘broken buds’ per plant and the date of relief of plants from dormancy were assessed. At the close of the study, new growth was removed from each of the treated plants and weighed.
# [4] = 49 days post treatment, thidiazuron ppm as in label, other concentrations as in Table 1
# [5] = thidiazuron 300 ppm unless label states other, other concentrations as in Table 1
# [6] = thidiazuron 300 ppm unless label states other, other concentrations as in Table 1, listed as hydrogen cyanamide
compound,measurement,setting,value
"N#CN [Hydrogen Cyanamide, hydrogen cyanamide]",% bud break (vines with at least one bud break),"[1]; 7 DAT, thidiazuron 300 ppm unless label states other",0%
same,% bud break (vines with at least one bud break),"[1]; 10 DAT, thidiazuron 300 ppm unless label states other",11.1%
same,% bud break (vines with at least one bud break),"[1]; 13 DAT, thidiazuron 300 ppm unless label states other",44.4%
same,% bud break (vines with at least one bud break),"[1]; 15 DAT, thidiazuron 300 ppm unless label states other",66.7%
same,% bud break (vines with at least one bud break),"[1]; 17 DAT, thidiazuron 300 ppm unless label states other",77.8%
same,% bud break (vines with at least one bud break),"[1]; 20 DAT, thidiazuron 300 ppm unless label states other",88.9%
same,% bud break (vines with at least one bud break),"[1]; 22 DAT, thidiazuron 300 ppm unless label states other",88.9%
same,% bud break (vines with at least one bud break),"[1]; 24 DAT, thidiazuron 300 ppm unless label states other",88.9%
same,% bud break (vines with at least one bud break),"[1]; 27 DAT, thidiazuron 300 ppm unless label states other",88.9%
same,% bud break (vines with at least one bud break),"[1]; 29 DAT, thidiazuron 300 ppm unless label states other",88.9%
same,% bud break (vines with at least one bud break),"[1]; 31 DAT, thidiazuron 300 ppm unless label states other",88.9%
same,% bud break (vines with at least one bud break),"[1]; 34 DAT, thidiazuron 300 ppm unless label states other",100.0%
same,% bud break (vines with at least one bud break),"[1]; 36 DAT, thidiazuron 300 ppm unless label states other",100.0%
same,% bud break (vines with at least one bud break),"[1]; 38 DAT, thidiazuron 300 ppm unless label states other",100.0%
same,% bud break (vines with at least one bud break),"[1]; 41 DAT, thidiazuron 300 ppm unless label states other",100.0%
same,% bud break (vines with at least one bud break),"[1]; 43 DAT, thidiazuron 300 ppm unless label states other",100.0%
same,% bud break (vines with at least one bud break),"[1]; 49 DAT, thidiazuron 300 ppm unless label states other",100.0%
same,Combined Shoot Dry Weight,[1]; [4],9.0 g
same,Combined Shoot Fresh Weight,[1]; [4],39.3 g
same,Longest Shoot Length,[1]; [4],83.8 cm
same,Total # of Flower Clusters,[1]; [4],0.0
same,Total Shoot Length,[1]; [4],129.8 cm
same,Dry Weight (g)/25% Bud Break to Harvest (d),[1]; combined shoot dry weight at 49 DAT normalised by days from 25% bud break to harvest,0.24 g/day
same,Dry Weight (g)/50% Bud Break to Harvest (d),[1]; combined shoot dry weight at 49 DAT normalised by days from 50% bud break to harvest,0.26 g/day
same,Fresh Weight (g)/50% Bud Break to Harvest (d),[1]; combined shoot fresh weight at 49 DAT normalised by days from 50% bud break to harvest,1.12 g/day
same,50% Bud Break to Harvest,"[1]; harvest at day 49, thidiazuron 300 ppm unless label states other, other concentrations as in Table 1",35 days
same,Initial to 50% Bud Break,[1]; [5],5 days
same,Initial to 50% Bud Break,[1]; [6],≤ 5 days
same,25% Bud Break (DAT),"[1]; time to 25% bud break, thidiazuron 300 ppm unless label states other, other concentrations as in Table 1",11 DAT
same,50% Bud Break (DAT),[1]; [5],14 DAT
same,50% Bud Break (DAT),[1]; [6],≤ 14 DAT
same,Broken Buds per plant (Average Buds Broken per Spur),[2]; 31 days after treatment,0.53
same,% Broken Buds,[2]; 48 days after treatment,58.8%
same,Total Shoot Length,[2]; 48 days after treatment,25.2
same,Fresh Shoot Weight (g)/Plant,[3]; new growth at close of study,31.49 g
same,50% Bud Break (DAT),[3],16 DAT
same,100% Bud Break (DAT),[3],33 DAT
same,Initial to 50% Bud Break,[3],2
same,Number of Buds Broken/Plant,[3],1.5
